In PubChem BioAssay (NCI) one finds TGI and GI50 data, which are given here for twelve molecules.

Test systems include BT-549 breast; K-562 leukemia; RXF 393 renal; SF-539 CNS; HCT-15 colon; SK-MEL-28 melanoma; EKVX NSCLC; SK-MEL-2 melanoma; TK-10 renal; HS 578T breast.
What all share (test): growth of human tumour cells (NCI), 48 h

SMILES strings stand for the structures.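 Test compounds were applied to cells in 96-well plates for 48 hours at 5 doses. At the GI50, growth is halved. TGI: concentration producing complete growth inhibition.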 Where a SMILES comes first, the peptide text is derived from it. The star is where a group is joined. Palmitoyl = CCCCCCCCCCCCCCCC(=O)*

In the case of `CC12C=CC(=O)C=C1CCC1C3CCC(O)(C(=O)CO)C3(C)CC(O)C12F` (configuration not stated), the TGI in the assay on BT-549 breast, in the assay on K-562 leukemia, in the assay with RXF 393 renal, in the assay on SF-539 CNS, in the assay on HCT-15 colon and in the assay with SK-MEL-28 melanoma was more than 100 µM each time. The TGI in the assay on EKVX NSCLC, in the assay with SK-MEL-2 melanoma, in the assay with TK-10 renal and in the assay with HS 578T breast was more than 100 µM in each case.
As for `CC(N)Cc1ccc(Cl)c(Cl)c1` (configuration not stated), the TGI in the assay with K-562 leukemia was 44 µM; with RXF 393 renal, 77.2 µM; in the assay with SF-539 CNS, more than 60.2 µM; in the assay with HCT-15 colon it was 84.9 µM; with SK-MEL-28 melanoma, 39.1 µM; in the assay with EKVX NSCLC it was more than 100 µM. Besides, the TGI in the assay with SK-MEL-2 melanoma is 37.6 µM; in the assay on TK-10 renal, more than 83 µM.
As to `O=C(/C=C/c1ccc(Oc2cc(C(=O)/C=C/c3ccc(O)cc3)c(O)cc2O)cc1)c1ccc(O)cc1O`, the TGI stood at 39.3 µM in the assay with BT-549 breast; 16.6 µM with K-562 leukemia; 24.8 µM with RXF 393 renal; 6.1 µM with SF-539 CNS; 19.4 µM in the assay on HCT-15 colon; 7.07 µM with SK-MEL-28 melanoma. In addition, the TGI in the assay on EKVX NSCLC was 27.9 µM; in the assay on SK-MEL-2 melanoma it was 28.2 µM; in the assay on TK-10 renal it was 11.6 µM; with HS 578T breast, more than 100 µM.
In the case of `CON(C)c1nc(N(C)OC)nc(N(C)OC)n1`, the TGI in the assay with K-562 leukemia, with RXF 393 renal, in the assay on SF-539 CNS, with HCT-15 colon, in the assay with SK-MEL-28 melanoma and in the assay on EKVX NSCLC was more than 10 µM each time. For the same molecule, the TGI in the assay on SK-MEL-2 melanoma, in the assay with TK-10 renal and in the assay on HS 578T breast was more than 10 µM each time.
As for `Cc1ccc(-c2nc(N/N=C/C=C/c3ccccc3)c3ccccc3n2)cc1`, the TGI is 52.2 µM in the assay on BT-549 breast; more than 100 µM in the assay with K-562 leukemia; 99.6 µM in the assay with RXF 393 renal; more than 100 µM with SF-539 CNS; more than 100 µM in the assay on HCT-15 colon; more than 100 µM with SK-MEL-28 melanoma. In addition, the TGI in the assay on EKVX NSCLC was 51.8 µM; in the assay with SK-MEL-2 melanoma, 99.2 µM; in the assay on TK-10 renal, 38.7 µM; in the assay with HS 578T breast, more than 100 µM.
With `C[N+](C)(C)c1ncnc2c1ncn2C1CC(O)C(CO)O1` (configuration not stated), the TGI in the assay on BT-549 breast, in the assay with K-562 leukemia, in the assay on RXF 393 renal, with SF-539 CNS, with HCT-15 colon and in the assay on SK-MEL-28 melanoma was more than 100 µM throughout. The TGI with EKVX NSCLC, with SK-MEL-2 melanoma, with TK-10 renal and with HS 578T breast was more than 100 µM throughout.
For `Cn1c(-c2ccccc2)cc(-c2cccs2)c1-c1cccs1`, the TGI with K-562 leukemia, with RXF 393 renal, in the assay on SF-539 CNS, in the assay with HCT-15 colon, with SK-MEL-28 melanoma and with EKVX NSCLC was more than 100 µM each time. In the assay with SK-MEL-2 melanoma, this molecule had a TGI of more than 100 µM.
Turning to `OCCN(CCO)c1ncnc2nc[nH]c12`, the TGI in the assay on BT-549 breast, in the assay with K-562 leukemia, with RXF 393 renal, in the assay with HCT-15 colon, with SK-MEL-28 melanoma and in the assay on EKVX NSCLC was more than 100 µM in each case. Also, the TGI in the assay with TK-10 renal and in the assay with HS 578T breast was more than 100 µM throughout.
On to `COC(=O)/C=C(\CC(=O)OC)n1nnnc1[C@@H]1C[C@H](COC(c2ccccc2)(c2ccccc2)c2ccccc2)[C@H]2OC(C)(C)O[C@H]21`, for which the TGI with K-562 leukemia, in the assay on RXF 393 renal, in the assay on SF-539 CNS, with SK-MEL-28 melanoma, with EKVX NSCLC and in the assay with SK-MEL-2 melanoma was more than 100 µM throughout. The TGI in the assay with TK-10 renal and with HS 578T breast was more than 100 µM in each case.
For `CN1C(c2ccccc2)CC(=O)C(N)C1c1ccccc1` (configuration not stated), the TGI in the assay on K-562 leukemia was more than 67.6 µM; in the assay on RXF 393 renal, more than 31.6 µM; with SF-539 CNS it was more than 96.5 µM; in the assay on HCT-15 colon, more than 63.1 µM; with SK-MEL-28 melanoma it was more than 31.6 µM; in the assay with EKVX NSCLC, more than 80.4 µM. Besides, the TGI in the assay with SK-MEL-2 melanoma is 41.1 µM; with TK-10 renal it was more than 100 µM.
Take `C/C(=N/N=C(\[O-])c1ccncc1)C(F)(F)F.C/C(=N\N=C(/[O-])c1ccncc1)C(F)(F)F.[Ni+2]`: the GI50 in the assay on BT-549 breast was more than 1 µM; in the assay with K-562 leukemia, more than 1 µM; with HCT-15 colon, more than 1 µM; with SK-MEL-28 melanoma it was 0.00108 µM; in the assay on EKVX NSCLC, more than 1 µM; in the assay with SK-MEL-2 melanoma, more than 1 µM. The TGI is more than 1 µM in the assay on BT-549 breast; more than 1 µM in the assay with K-562 leukemia; more than 1 µM in the assay on HCT-15 colon; 0.005 µM in the assay with SK-MEL-28 melanoma; more than 1 µM in the assay with EKVX NSCLC.
Regarding `CCCCCCCCCCCCCCCC(=O)N1CCCC1C(=O)NCC(=O)NC(Cc1ccccc1)C(=O)NC(C)C(=O)NC(CO)C(=O)NC(Cc1ccc(O)cc1)C(=O)NC(CCCCN)C(=O)NC(CC(C)C)C(=O)NC(CCCN=C(N)N)C(=O)N1CCCC1C(=O)NCC(N)=O` (configuration not stated) (Palmitoyl-PGFASYKLRPG-NH2; configuration not given here), the GI50 was 21.9 µM with BT-549 breast; 18.3 µM with K-562 leukemia; 24.7 µM with RXF 393 renal; 24 µM in the assay on SF-539 CNS; 22.1 µM with SK-MEL-28 melanoma; 20.1 µM with EKVX NSCLC. Also, the GI50 with SK-MEL-2 melanoma was 34.6 µM; in the assay on TK-10 renal it was 18.4 µM; in the assay on HS 578T breast, 39.7 µM. Also, the TGI in the assay with BT-549 breast is 45.3 µM; in the assay with K-562 leukemia it was 32.2 µM; with RXF 393 renal, 53.5 µM; in the assay with SF-539 CNS it was 61.4 µM; with SK-MEL-28 melanoma it was 48.8 µM; with EKVX NSCLC it was 52.1 µM. In addition, the results for the TGI with SK-MEL-2 melanoma, in the assay on TK-10 renal and with HS 578T breast were more than 100 µM, 41.5 µM and more than 100 µM, respectively.
